Experimental data as given in patent publication US20170198027A1 (priority 2012, published 2017).
“Also recorded” adds a separate entry of the source. Where two headings read alike, the source gives them in different places.

Tests used:
[1] = tested on: Apo E(-/-) mice fed with HFD/High Cholesterol diet; assay: lipid profile and atherosclerosis plaque in 18 ApoE mice, 4 weeks study; format: in vivo, mouse
Experimental: [table] […] Before HFD; 4 week: […] After 4 weeks treatment Oil Red staining procedure: • Sacrificed the mice and heart, aorta, and arteries were dissected under the dissecting microscope. […] Stain with freshly prepared Oil Red 0 working solution 10 mins. Image analysis procedure: • The unfolded vascular inner wall “Were scanned with Aperio ScanScope system and the area of atherosclerotic plaque was measured by Image-Proplus software after oil red 0 staining as follow picture shown. We measured the sum lesion areas and mean density using ipp software and calculated atherosclerotic percent. Area percent (%)” Sum area of atherosclerotic plaque (mm2) I whole area of vascular inner wall

[2] = tested on: New Zealand white rabbit fed with high fat diet; details: for atherosclerosis Grade: individual animals, listed as APOAI
Experimental: The treatment groups were given APOAJ via auricular vein once a week Vehicle controls received normal saline via auricular vein once a week. […] The body weight of animal was determined every week and whole blood was drawn every three weeks. The study duration was 19 weeks. At the end of study, all animals were sacrificed. […] Male New Zealand white rabbits were used in this study. […] Blood samples were taken 12 hour after fasting before study to determine the blood lipid parameters. […] Ten to 14 rabbits were in one group. […] First dose was given 1 week before high fat diet. […] 5.2 blood lipid parameters: whole blood was drawn every three weeks. Animals were subject to 12 hour fast before taking blood. […] The upper layer of serum was then separated and examined for total cholesterol (TC), total triglyceride (TG), low density lipoprotein cholesterin (LDL-C), and high density lipoprotein cholesterin (HDL-C). Test reagents were purchased from Shanghai A: The atherosclerosis of aorta (plaque area lj) B: Liver index C: Aorta, liver, heart, arteria carotis, kidney All animals were anesthetized by 20 of ethyl carbamate and then sacrificed with air injection. Abdomen cavity was opened. Whole blood was taken from heart. Heart was harvested along with 7 em of aorta. Then other organs like liver, kidney and arteria carotis were harvested. […] Pictures were taken then. Aorta was cut from aortic arch, opened longitudinally and taken picture. […] One piece of this sample was fixed in fomlalin for further pathological analysis. The weight of liver was determined immediately. Two pieces of specimen were cut from hepatic lobe. One was kept in cryo-preservation tube for lipid analysis and another one was fixed in formalin for further pathological analysis. Animals were fast for 12 hours before taking blood samples via auricular vein. […] Test reagents were purchased from Shanghai Rong Sheng Bio-pharmaceutical Co. Ltd. The aorta was dissected and opened for 7.5 em from aortic arch longitudinally. Pictures were taken and atherosclerosis changing was analyzed.

[3] = low dose group vs vehicle control
[4] = medium group vs vehicle control

With “human Apoiipoprotein AI, injection [APOA1]” the “blood plasma lipid profile” value ([1]; after 5 weeks treatment, 0.2 ml iv/ip) was “didn't improve the lipid profile”, the atherosclerotic plaques/lesions ([1]; vs vehicle group after 14 dosing) was “trend on reducing the atherosclerotic plaques/lesions” and the “Lipid content in aorta: HDL-C” value ([2]; High dose) was 0.111. For the same substance, the “Lipid content in aorta: LDL-C” value ([2]; High dose) was 0.318, the “Lipid content in aorta: TC” value ([2]; High dose) was 0.29 and the “Lipid content in aorta: TG” value ([2]; High dose) was 0.402. For the same substance, the “Lipid content in liver: HDL-C” value ([2]; High dose) was 0.825 ± 0.129, the “Lipid content in liver: LDL-C” value ([2]; High dose) was 2.302 ± 0.054 and the “Lipid content in liver: TC” value ([2]; High dose) was 2.841 ± 0.298. For the same substance, the “Lipid content in liver: TG” value ([2]; High dose) was 1.3 ± 0.171, the Liver index ([2]; High dose (n = 8)) was 4.257 ± 0.482% and the Liver weight ([2]; High dose (n = 8)) was 151.69 ± 18.49 g. The “Lipid content in aorta: HDL-C” value ([2]; Low dose) was 0.092, the “Lipid content in aorta: LDL-C” value ([2]; Low dose) was 0.254 and the “Lipid content in aorta: TC” value ([2]; Low dose) was 0.28. The “Lipid content in aorta: TG” value ([2]; Low dose) was 0.337, the “Lipid content in liver: HDL-C” value ([2]; Low dose) was 0.803 ± 0.236 and the “Lipid content in liver: TC” value ([2]; Low dose) was 2.95 ± 0.809. For the same substance, the “Lipid content in liver: TG” value ([2]; Low dose) was 1.369 ± 0.251, the Liver index ([2]; Low dose (n = 12)) was 3.886 ± 0.489% and the Liver weight ([2]; Low dose (n = 12)) was 128.096 ± 20.43 g. The Liver index ([2]; Medium dose (n = 9)) was 3.708−.−i−:( ).391%, the Liver weight ([2]; Medium dose (n = 9)) was 112.006− −+ .−25.79 g and the “Lipid content in aorta: HDL-C” value ([2]; Middle dose) was 0.128. For the same substance, the “Lipid content in aorta: LDL-C” value ([2]; Middle dose) was 0.307, the “Lipid content in aorta: TC” value ([2]; Middle dose) was 0.332 and the “Lipid content in aorta: TG” value ([2]; Middle dose) was 0.388. The “Lipid content in liver: HDL-C” value ([2]; Middle dose) was 0.815 ± 0.249, the “Lipid content in liver: LDL-C” value ([2]; Middle dose) was 1.407 ± 0.418 and the “Lipid content in liver: TC” value ([2]; Middle dose) was 2,214 ± 0.515. The “Lipid content in liver: TG” value ([2]; Middle dose) was 1.081 ± 0.31, the blood lipid parameters ([2]; given along with high fat diet) was “no significant decrease in blood lipid parameters” and the “TG, lipid content in liver” value ([2]; high dose group vs vehicle control) was “significantly lower”. For the same substance, the “atherosclerosis Grade” value ([2]; high dose group) was “IV (Grade IV was greater than 75%)”, the “pathological change of aorta” value ([2]; low dose group) was “no significant improvement” and the “TG, lipid content in liver” value [2, 3] was “significantly lower”. For the same substance, the “cellular swelling in liver” value [2, 3] was “same”, the “fat degeneration in liver” value [2, 3] was “better” and the “atherosclerosis Grade” value ([2]; low dose group) was “I (grade I was less than 25 ?-)); also recorded: IV (Grade IV was greater than 75%)”. The “atherosclerosis Grade” value ([2]; medium dose group) was “I (grade I was less than 25 ?-))”, the area of atherosclerosis ([2]; medium group (40 mg/kg) vs vehicle control) was “significant less” and the “LDL-C, lipid content in liver” value [2, 4] was “significantly lower”. The “TC, lipid content in liver” value [2, 4] was “significantly lower”, the “TG, lipid content in liver” value [2, 4] was “significantly lower” and the “cellular swelling and fat degeneration in liver” value [2, 4] was “better”. For the same substance, the “pathological change of aorta (endothelium swelling, smooth muscle migrating, foam cell formation)” value [2, 4] was “better”, the “Body weight Wk 19” value ([2]; rabbit, in vivo) was 3.19-.-i-:( ).278 kg and the “atherosclerosis change in Arteria carotis” value ([2]; rabbit, in vivo) was “no atherosclerosis change found”. For the same substance, the “calcification, pathological examination” value ([2]; rabbit, in vivo) was “no calcification found”, the “kidney Pathological change” value ([2]; rabbit, in vivo) was “-” and the “pathological change in heart and kidney” value ([2]; rabbit, in vivo) was “no pathological change found”. The “high density lipoprotein cholesterin (HDL-C) Wk 19” value ([2]; serum, High dose (n = 8)) was 4.993 · −+ :2.018 mmol/L, the “ligh density lipoprotein cholesterin (LDL-C) Wk 0” value ([2]; serum, High dose (n = 8)) was 0.92 ± 0.324 mmol/L and the “ligh density lipoprotein cholesterin (LDL-C) Wk 19” value ([2]; serum, High dose (n = 8)) was 14.1 ± 4.188 mmol/L. The “total cholesterol (TC) Wk 0” value ([2]; serum, High dose (n = 8)) was 1.59 .t-J}.48 mmol/L, the “total cholesterol (TC) Wk 19” value ([2]; serum, High dose (n = 8)) was 12.49 -t-2.81 mmol/L and the “high density lipoprotein cholesterin (HDL-C) Wk 0” value ([2]; serum, Low dose (n = 12)) was 0.705 ± 0.246 mmol/L. The “high density lipoprotein cholesterin (HDL-C) Wk 19” value ([2]; serum, Low dose (n = 12)) was 3.744 ± 2.14 mmol/L, the “ligh density lipoprotein cholesterin (LDL-C) Wk 0” value ([2]; serum, Low dose (n = 12)) was 0.826 ± 0.279 mmol/L and the “ligh density lipoprotein cholesterin (LDL-C) Wk 19” value ([2]; serum, Low dose (n = 12)) was 7.298 ± 4.60 mmol/L. The “total cholesterol (TC) Wk 0” value ([2]; serum, Low dose (n = 12)) was 1.06.-i-:0.27 mmol/L, the “total cholesterol (TC) Wk 19” value ([2]; serum, Low dose (n = 12)) was 9.07-.+:4.92 mmol/L and the “total triglyceride (TG) Wk 0” value ([2]; serum, Low dose (n = 12)) was 0.786 ± 0.229 mmol/L. For the same substance, the “total triglyceride (TG) Wk 19” value ([2]; serum, Low dose (n = 12)) was 1.267 ± 0.772 mmol/L, the “high density lipoprotein cholesterin (HDL-C) Wk 0” value ([2]; serum, Medium dose (n = 9)) was 0.67 ± 0.207 mmol/L and the “high density lipoprotein cholesterin (HDL-C) Wk 19” value ([2]; serum, Medium dose (n = 9)) was 4.343 ± 2.439 mmol/L. For the same substance, the “ligh density lipoprotein cholesterin (LDL-C) Wk 19” value ([2]; serum, Medium dose (n = 9)) was 6.357 ± 4.475 mmol/L, the “total cholesterol (TC) Wk 0” value ([2]; serum, Medium dose (n = 9)) was 1.77 ± 0.783 mmol/L and the “total cholesterol (TC) Wk 19” value ([2]; serum, Medium dose (n = 9)) was 10.28 ± 5.82 mmol/L. For the same substance, the “total triglyceride (TG) Wk 0” value ([2]; serum, Medium dose (n = 9)) was 0.656 ± 0.19 J·mmol/L, the HDL-C ([2]; serum, all treatment groups vs vehicle control) was “significantly high” and the dose escalation effect ([2]; three treatment groups, anatomic, pathological and biochemistry examination) was “no dose escalation effect”. For the same substance, the Liver index ([2]; treatment group vs vehicle) was “lower in treatment group, but there's no statistical difference found” and the “lipid content in aorta” value ([2]; treatment groups vs vehicle control) was “lower in treatment groups than that in vehicle control but there was no statistical significance”.
